{"source": "paper PMC5735191", "about": "“Computational and biological profile of boronic acids for the detection of bacterial serine- and metallo-β-lactamases” (Scientific Reports, 2017)", "key": {"[1]": {"target": "VIM-2 (Escherichia coli, UniProt Q5U7L7)", "description": "VIM-2. The VIM-2 metallo-β-lactamase was purified from a 2 L culture of BL21-DE3/pET9-VIM-\n2 as previously described3. Briefly, the protein was purified from the culture supernatant,\nconcentrated by ultrafiltration, and purified using two anion exchange chromatography steps,\nfollowed by a final gel filtration step, as described. β-lactamase activity was monitored using the\nThe authenticity and purity of the final protein sample was\nconfirmed by ESI-MS and SDS-PAGE.\nProtein purification methods and kinetic profile characterization details: the Table reports the\nstep-by-step purification procedure for each β-lactamase protein, indicating the β-lactam substrate\nused for kinetic profile characterization (kcat, Km and specificity constant evaluation) and the\nproper concentration of enzyme used in the assay for each BL class."}, "[2]": {"target": "NDM-1 (Klebsiella pneumoniae, UniProt C7C422)", "sequence (C7C422 29-270 limits assumed)": "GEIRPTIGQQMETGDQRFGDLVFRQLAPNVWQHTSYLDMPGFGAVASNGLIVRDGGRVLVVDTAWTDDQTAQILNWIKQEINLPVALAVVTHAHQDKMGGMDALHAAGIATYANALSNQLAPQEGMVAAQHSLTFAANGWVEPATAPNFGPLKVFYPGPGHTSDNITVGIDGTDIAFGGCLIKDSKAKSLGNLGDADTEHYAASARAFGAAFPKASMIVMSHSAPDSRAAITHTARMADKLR", "protocol": "24h at 37 °C. Cells were recovered by centrifugation (4,500 rpm, 4 °C, 20 min) and resuspended in\n200 mL of buffer A (10 mM Hepes, 0.15 M NaCl, pH7.5). The cells were lyzed by sonication\n(Sonopuls HD-2200) and the cell debris removed by centrifugation (12,000 rpm, 4 °C, 30 min) in\nthe presence of Protease Inhibitor Complete (Roche). The clarified sample was loaded onto a 5mL\nHisTrap Fast Flow column (GE Healthcare). The protein was eluted with imidazole (350 mM in\nbuffer A) The active fractions were pooled, concentrated by ultrafiltration (Amicon Ultra 15, MW\ncut-off, 10 kDa), desalted (Hi Prep 26/10 Desalting) in buffer B (20mM triethanolamine, 50 µM\nZnSO4, pH 7.2) to remove imidazole. β -lactamase activity was monitored using the hydrolysis rate\nThe authenticity and purity of the final protein sample was confirmed by"}}, "data": [{"compound": "C[C@@H](O)[C@H]1C(=O)N2C(C(=O)O)=C(SCCN=CN)C[C@H]12", "note": "[Imipenem, imipenem]", "values": [{"measurement": "kcat", "setting": "[1]; β-lactam substrate of VIM-2", "value": "8 ± 2", "unit": "s⁻¹"}, {"measurement": "Km", "setting": "[1]; β-lactam substrate of VIM-2, enzyme 0.043 µM", "value": "11 ± 3", "unit": "µM"}, {"measurement": "kcat", "setting": "[2]; β-lactam substrate of NDM-1", "value": "520 ± 84", "unit": "s⁻¹"}, {"measurement": "Km", "setting": "[2]; β-lactam substrate of NDM-1, enzyme 0.021 µM", "value": "58 ± 6", "unit": "µM"}]}]}
